Data from US20180008542A1, “PHARMACEUTICAL COMPOSITION” (priority 2003, published 2018).

Experiments:
[1] = Laser diffraction particle size analysis (Mastersizer 2000); assay type: physicochemical; conditions: continuous flow precipitator, into isopropanol; coated samples 10% protein loading
Procedure: Laser diffraction particle size analysis was carried out on bioactive coated particles using a Mastersizer 2000. Briefly, enough PCMC was added to the sample holder of the Mastersizer 2000 containing 60 ml of 2-propanol to ensure a laser obscuration of between 10 and 20%. Measurements were then taken using a previously set up Standard Operating Procedure. d(0.1)(μm)=10% of the particles are below this particle size d(0.5)(μm)=50% of the particles are above and below this particle size d(0.9)(μm)=90% of the particles are below this particle size. Span=d(0.9)−d(0.1)/d(0.5)
Span gives a good indication of population homogeneity.

resistance arteries [2] = experiment: Ex-vivo insulin bioactivity, wire myograph; assay type: cell-based, Wistar rats; conditions: pre-constriction with thromboxane mimetic [U44169]
Procedure: A pressure myograph which allowed luminal application of drug provided initial measures of sensitivity. In the pressure system, arteries mounted on opposing glass cannula (outer dimension 80 μm) were gradually pressurized from <5 mmHg to 40 mmHg over 15 mins and held for 15 mins more before starting the assay. Responses were measured using proprietary video analysis software (MyoView). […] The arteries were then exposed to increasing concentrations of insulin either directly into the bath (wire) or by gradual infusion directly into the lumen via a fetal microcannulae inserted to the tip of the glass mounting cannula, at a constant pressure (pressure). Following pre-constriction with thromboxane mimetic [U44169] the insulin-mediated vasorelaxation profile is typical for insulin and exerts its effect mainly via the activation of nitric oxide synthase and the subsequent release of endothelial nitric oxide.

[3] = Zeta potential (Malvern Zetasizer, suspension in acetonitrile); assay type: physicochemical; conditions: for Zeta potential (sign): dilute suspension in acetonitrile; for Zeta potential (mV): microcrystals in non-aqueous medium, precipitation pH 5.59-7.02 as given per sample
Source text: The core microcrystal and protein coating that are characteristic of protein coated coated microcrystals arise from a single continuous self-assembly process. In order to assess whether electrostatic binding of the bioactive molecule to pre-formed microcrystals might be important in the mechanism of this process it was of interest to measure the surface potential of the microcrystals in a non-aqueous medium. The liquid layer surrounding a charged particle exists as two parts; an inner region (Stern layer) where the ions are strongly bound and an outer (diffuse) region where they are less firmly associated. Within the diffuse layer there is a notional boundary inside which the ions and particles form a stable entity. When a particle moves (e.g. due to gravity), ions within the boundary move too. […] The potential at this boundary (surface of hydrodynamic shear) is the zeta potential. The sign and magnitude of the zeta potential depends on the surface charge of the particle with for example a negative zeta potential indicating a particle with an overall negative charge. A Malvern Zetasizer that employs laser Doppler velocimetry was used to measure the sign and approximate magnitude of the Zeta potential of microcrystals produced by precipitation of various core materials at fixed pH. The measurements were made on pre-prepared microcrystals or protein coated microcrystals suspended as dilute suspension in acetonitrile. A polystyrene latex was used to calibrate the machine. […] If electrostatic binding is important to the mechanism of formation it would be expected that only biomolecules with an overall positive charge would be expected to form a coating on these negatively charged materials. The charge on a protein is a function of pH. It will be negative at pH values above the pI and positive at a pH below the pI.

[4] = above 80% RH
Procedure: The uptake of water by bioactive molecule coated particles produced by the present co-precipitation process and of the core material precipitated alone under a controlled humidified environment was carried out by Dynamic Vapor Sorption (DVS) using Dynamic Vapor Sorption 1000 (Surface Measurement Systems).
The Experimental set-up was as follows.
The DVS used a 2 full-cycle experimental Special Automatic Operation (SAO) protocol that included an initial drying stage at 0% Relative Humidity (RH). […] This was proceeded by an identical desorption cycle down to 0% RH. This cycle was repeated. The following criteria was used to control the DVS stage change: either the rate of change of the increase in mass i.e. dm/dt dropped to 0.002, or the maximum stage time was 2000 minutes.
Prior to introduction of the sample, the balance was tared and the instrument was allowed to equilibrate until a stable baseline was observed. The particles were then loaded and the initial weight recorded, followed by switching on the SAO. The experiment ran until the completion of the SAO.

resistance arteries [5] = experiment: Ex-vivo insulin bioactivity, pressure myograph; assay type: cell-based, Wistar rats; conditions: mean of 3 (SD)
Procedure: Insulin bioactivity assays were carried out on resistance arteries ([…]) isolated from 12 week old male Wistar rats studied in heated (37° C.) and gassed (95% O2/5% CO2) physiological salt solution (PSS) to achieve a pH of 7.4. A pressure myograph which allowed luminal application of drug provided initial measures of sensitivity. In the pressure system, arteries mounted on opposing glass cannula (outer dimension 80 μm) were gradually pressurized from <5 mmHg to 40 mmHg over 15 mins and held for 15 mins more before starting the assay. Responses were measured using proprietary video analysis software (MyoView). The pressure myograph is able to detect the vasodilatory effect of insulin at very low concentrations (1×10^−10 M).

[6] = HPLC analysis of insulin after reconstitution; conditions: retained in the same aqueous solution used for co-precipitation

## CC(C)C(N)C(=O)O (racemic) [D,L-valine]
[1]
  Span: 1.32
  d(0.5)/microns: 21.810 microns
Resistance arteries [2]
  insulin mediated vasorelaxation: no bioactivity
[3]
  Zeta potential (sign): negative
  Zeta potential (mV): −19.6 mV

## NCC(=O)O [Glycine, glycine]
[1]
  Span: 1.72
  d(0.5)/microns: 58.370 microns
[3]
  Zeta potential (sign): negative
  Zeta potential (mV): −49.7 mV
[4]
  water uptake: start to take up appreciable amounts of water

## NC(=O)CC[C@H](N)C(=O)O [L-glutamine]
[1]
  Span: 1.88
  d(0.5)/microns: 36.373 microns
[3]
  Zeta potential (sign): negative
  Zeta potential (mV): −54.8 mV

## Commercial Insulin: USP bovine pancreas insulin control
Resistance arteries [5]; Log M −9
  insulin mediated relaxation to noradrenaline pre-constriction (100=100% constriction): 65 (23) %
Resistance arteries [5]; Log M −10
  insulin mediated relaxation to noradrenaline pre-constriction (100=100% constriction): 84 (7) %
Resistance arteries [5]; Log M −11
  insulin mediated relaxation to noradrenaline pre-constriction (100=100% constriction): 100 (0) %
[6]
  time to significant changes: less than 30 minutes
